As a reminder, the inhibition is the share of the control response that was lost under treatment. Low values mean little suppression, high ones strong suppression. The solubility is how much of the substance goes into solution per volume.

Data set [1] relates to mPTP. The data set is described as follows: mPTP activity (Ca2+ retention) assay in isolated rat liver mitochondria. Particulars: isolated rat liver mitochondria; average value from multiple experiments (n ≥ 2). It is filed as biochemical. Put shortly:
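Freshly isolated female Sprague Dawley rat liver mitochondria were energised with succinate and rotenone in pH 7.4 buffer with Fluo5N, then pre-incubated 10 min at RT with compound (30 μM to 1 nM final) before a 75 μM CaCl2 bolus. The IC50 used 10-min fluorescence, normalised to DMSO and 5 μM cyclosporin A.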

The target in data set [2] is CYP2D6 (Homo sapiens (Human), UniProt P10635). The data set is described as follows: Cytochrome P450 CYP2D6 inhibition in human liver microsomes. The data set is classed as in vitro ADME. Particulars: probe dextromethorphan 2 µM (dextrorphan formation); 1 uM test compound, human liver microsomes; average value from two experiments; negative values = no effective inhibition. The method, boiled down:
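Human liver microsomes (0.2 mg/mL) with 2 μM dextromethorphan in 100 mM PBS, test compound at 1 μM or 0.1-30 μM, 15 min preincubation then NADPH-started reaction for 20 min at 37° C, in duplicate. Dextrorphan formation by UPLC-MS/MS; IC50 from % decrease versus uninhibited control.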

A short description of data set [3]: PBS and FaSSIF solubility. The data set is classed as physicochemical. The following applies: kinetic from dmso stock. How it is done:
Test compounds were prepared as 10 mM stocks in DMSO and 15 μl samples transferred in duplicate into 1.5 mL glass flat bottom vials (BioTech Solutions). Fasted state simulated intestinal fluid (FaSSIF) or PBS (pH 7.4) was added to each vial to final volume of 500 μl. One PTFE encapsulated stir stick (V&P Scientific) was placed in each vial before sealing with PTFE/SIL plugs (BioTech Solutions). Vials were shaken at 1100 rpm for 2 hr at 25° C. Samples were then filtered through MultiScreen Solvinert filter plates (Millipore) via vacuum filtration. Aliquots of filtrate (5 μl) plus 5 μl DMSO were diluted in 490 μl 50% acetonitrile in water containing internal standard. The filtrate was analysed and quantified against a standard of known concentration using LC-MS/MS. Solubility values of the test compound and control compound were calculated as follows: […]

Data set [4] is described as follows: Hepatocyte clearance assay, rat. Particulars: cryopreserved primary rat hepatocytes, average value from two experiments, read-out: Rat heps Clint. The data set is classed as in vitro ADME. How it is done:
(§1) In vitro clearance studies were performed in primary rat and human hepatocytes (BiolVT). Vials of cryopreserved rat or human hepatocytes were thawed in a 37° C. water bath for 2 min. Cells were transferred into thawing medium (Williams' Medium E containing 30% Percoll, 1×GlutaMAX-1, 15 mM HEPES, 5% fetal bovine serum (FBS), 4 μg/ml insulin, 1 μM dexamethasone), centrifuged at 100 g for 10 min then resuspended in culture medium (Leibovitz's L-15 Medium) at a concentration of 0.5×10^6 viable cells/mL (number of viable cells assessed using AO/PI staining). Hepatocytes (198 μL) were transferred into wells of a 96-well non-coated plate and placed in a 37° C. incubator for 10 min. Test compound solutions were prepared from 10 mM stocks in DMSO, diluted to 100 μM in 50% (v/v in water) acetonitrile. Test compound samples (2 μl) were added to each well of hepatocytes and incubated at 37° C. Samples (25 μl) were collected at t=0, 15, 30, […] and 120 min, mixed with 6 volumes (150 μl) of acetonitrile containing internal standard (100 nM alprazolam, 200 nM caffeine and 100 nM tolbutamide), vortexed for 5 min and centrifuged for 45 min at 3220 g. An aliquot of supernatant (100 μL) was diluted with 100 μL ultra-pure water, and the mixture was used for LC/MS/MS analysis. All incubations were performed in duplicate. Peak areas were determined from extracted ion chromatograms. The slope value, k, was determined by linear regression of the natural logarithm of the remaining percentage of the parent drug vs. incubation time curve. The in vitro half-life (in vitro t½) was determined from the slope value: in vitro t½=0.693/k. Conversion of the in vitro t½ (in min) into the in vitro intrinsic clearance (in vitro CLint, in μL/min/1×10^6 cells) was done using the following equation (mean of duplicate determinations):
(§2) [formula] • V=incubation volume (0.2 mL) • N=number of hepatocytes per well (0.1×10^6 cells).

Data set [5] can be described thus: Hepatocyte clearance assay, human. The data set is classed as in vitro ADME. The following applies: cryopreserved primary human hepatocytes, average value from two experiments, read-out: Human heps Clint. How it is done: as §1, §2
For data set [6], the system named is mPTP. The data set is described as follows: mPTP activity assay in isolated rat brain mitochondria. The data set is classed as biochemical. The following applies: isolated rat brain mitochondria. How it is done: mPTP activity was measured in brain mitochondria freshly isolated from female Sprague Dawley (250 to 300 gram) rats. Anaesthetised rats were perfused in-situ with ˜40 ml cold Dulbecco's Phosphate Buffered Saline (DPBS), then brains dissected and transferred into 30 ml Isolation Buffer (225 mM mannitol, 75 mM sucrose, 1 mM EGTA, adjusted to pH 7.4 with 1 M NaOH). The brain was minced using tweezers and a scalpel into ˜5 mm pieces then transferred into a 50 ml Potterton Dounce homogenization tube on ice containing 10 ml ice-cold isolation buffer (as above with addition of Complete Protease inhibitor; 1 tablet per 50 ml buffer).
Homogenisation was carried out using a […] pestle at 1800 rpm. The slurry was centrifuged at 2000 g for 10 min at 4° C., then the supernatant centrifuged at 12,000 g for 9 min. The pellet was resuspended with a dounce homogeniser in isolation buffer as above but with the addition of 0.02% digitonin, centrifuged at 12,000 g for 11 min and finally resuspended in 5 ml modified isolation buffer (as above but with EGTA reduced to 0.1 mM).
Test compounds were prepared in 384 well polypropylene assay plates as described above for the liver mitochondria assay. A stock mitochondria/Fluo5N assay solution was prepared in 5.6 ml assay buffer (120 mM mannitol, 40 mM MOPS, 5 mM KH2PO4, 60 mM KCl, 10 mM pyruvate, 2 mM malate, 2 mM MgCl2, 20 μM ADP, 1.26 μM oligomycin A, adjusted to pH 7.4) supplemented with Fluo5N pentapotassium salt (2 μM) and 1 ml mitochondria suspension, then transferred (15 μl) into the assay plate containing test compounds and incubated for 10 min at RT. Assay plates were then transferred to a FLIPR Tetra plate reader (Molecular Devices). Dye fluorescence was then measured every 3 sec for a total of 10 min. After 12 sec, a 2.5 μl bolus of Ca2+ (75 μM) was added from a source plate containing 675 μM CaCl2) in FLIPR assay buffer. IC50 values for test compounds were calculated using the fluorescence value collected at the 10 min timepoint with % inhibition calculated using the DMSO control and cyclosporin A values at […].

The mark [7] stands for this setting: fasted state simulated intestinal fluid (FaSSIF), fassif, Fasted state simulated intestinal fluid, 2 hr at 25° C., read-out: Solubility FaSSIF.

Molecules are shown by their SMILES. Values after ≈ are worked out from the molar mass of the structure shown. Read-outs that look alike come from different tables or passages of the source.

CYP2D6, sequence (P10635 whole entry): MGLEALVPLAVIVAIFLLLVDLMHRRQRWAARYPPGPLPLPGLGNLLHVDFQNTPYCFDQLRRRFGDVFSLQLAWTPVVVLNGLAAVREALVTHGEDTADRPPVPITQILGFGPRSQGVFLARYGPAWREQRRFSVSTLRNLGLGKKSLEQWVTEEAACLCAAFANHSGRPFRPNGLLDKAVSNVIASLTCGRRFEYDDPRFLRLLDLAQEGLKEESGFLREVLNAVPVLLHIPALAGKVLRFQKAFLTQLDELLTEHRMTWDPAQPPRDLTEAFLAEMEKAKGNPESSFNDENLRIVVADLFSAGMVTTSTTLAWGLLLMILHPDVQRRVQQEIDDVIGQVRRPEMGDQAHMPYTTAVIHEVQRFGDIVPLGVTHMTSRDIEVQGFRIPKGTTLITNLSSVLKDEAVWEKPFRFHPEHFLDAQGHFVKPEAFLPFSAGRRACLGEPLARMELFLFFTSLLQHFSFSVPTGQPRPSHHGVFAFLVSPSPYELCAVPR

`COCc1c(F)cccc1NC(=O)/C=C/c1ccc2c(C)n[nH]c2c1` [Example 50, (E)-N-(3-fluoro-2-(methoxymethyl)phenyl)-3-(3-methyl-1H-indazol-6-yl)acrylamide]: the “mPTP Rat liver pIC50” value in data set [1] is 7.3. In data set [2], this compound came in with an inhibition at 20 min, 1 µM of 1.3%. Further, the solubility at 2 h in data set [3] (setting [7]) was 23.7 µM (≈ 8.04 µg/mL). Moreover, the hepatocyte CLint at 1 µM in data set [4] worked out at 47.8 µL/min/1e6 cells; in data set [5] it was 15.6 µL/min/1e6 cells.

As for `Cc1n[nH]c2cc(/C=C/C(=O)N[C@H]3c4ccccc4OC[C@@H]3C)ccc12` [Example 65c, (E)-3-(3-methyl-1H-indazol-6-yl)-N-((3R,4R)-3-methylchroman-4-yl)acrylamide], in data set [1], the “mPTP Rat liver pIC50” value was 7.7. Besides, the “mPTP Rat brain pIC50” value in data set [6] was 7.8.

Consider `CO[C@H]1Cc2ccccc2[C@@H]1NC(=O)/C=C/c1ccc2c(C3CC3)n[nH]c2c1` [Example 70, (E)-3-(3-cyclopropyl-1H-indazol-6-yl)-N-((1S,2S)-2-methoxy-2,3-dihydro-1H-inden-1-yl)acrylamide], for which the “mPTP Rat liver pIC50” value in data set [1] is given as 7.5. Moreover, the inhibition at 20 min, 1 µM in data set [2] was found to be 7.5%. In addition, the solubility at 2 h in data set [3] (setting [7]) is 18.4 µM (≈ 6.87 µg/mL). Further, the hepatocyte CLint at 1 µM worked out at 70.1 µL/min/1e6 cells in data set [4] and 24.6 µL/min/1e6 cells in data set [5].

Consider `COc1n[nH]c2cc(/C=C/C(=O)N[C@H]3c4ccccc4C[C@@H]3OC)ccc12` [Example 71, (E)-3-(3-methoxy-1H-indazol-6-yl)-N-((1S,2S)-2-methoxy-2,3-dihydro-1H inden-1-yl)acrylamide], for which the “mPTP Rat liver pIC50” value in data set [1] worked out at 7.0. In data set [2], this compound had an inhibition at 20 min, 1 µM of 7.4%. The solubility at 2 h in data set [3] (setting [7]) was 19.9 µM (≈ 7.25 µg/mL). Also, the hepatocyte CLint at 1 µM worked out at 72 µL/min/1e6 cells in data set [4] and 8.9 µL/min/1e6 cells in data set [5].

Take `CO[C@H]1Cc2ccccc2[C@@H]1NC(=O)/C=C/c1ccc2c(C#N)n[nH]c2c1` [Example 74, (E)-3-(3-cyano-1H-indazol-6-yl)-N-((1S,2S)-2-methoxy-2,3-dihydro-1H-inden-1-yl)acrylamide]: the “mPTP Rat liver pIC50” value in data set [1] is given as 8.0. The “mPTP Rat brain pIC50” value in data set [6] is reported as 8.0. In addition, in data set [2], the inhibition at 20 min, 1 µM is 7.5%. In addition, in data set [3] (aqueous buffer, PBS pH 7.4, 2 hr at 25° C., read-out: Solubility PBS (pH 7.4)), the solubility at 2 h amounted to 1.2 µM (≈ 0.43 µg/mL).

Regarding `COc1cc(C)c(NC(=O)/C=C/c2ccc3c(C)n[nH]c3c2)c(C)n1` [Example 91, (2E)-N-(6-methoxy-2,4-dimethylpyridin-3-yl)-3-(3-methyl-1H-indazol-6-yl)prop-2-enamide], in data set [1], the “mPTP Rat liver pIC50” value was determined as 6.2. Further, in data set [6], the “mPTP Rat brain pIC50” value was determined as 7.2. Further, the solubility at 2 h in data set [3] (setting [7]) was 86 µM (≈ 28.9 µg/mL).

For `COc1cc(C)c(NC(=O)/C=C/c2ccc3c(F)n[nH]c3c2)c(C)n1` [Example 93, (2E)-3-(3-fluoro-1H-indazol-6-yl)-N-(6-methoxy-2,4-dimethylpyridin-3-yl) prop-2-enamide], the “mPTP Rat liver pIC50” value in data set [1] is given as 7.6. In addition, the “mPTP Rat brain pIC50” value in data set [6] is on record as 6.8. For the same compound, the solubility at 2 h in data set [3] (setting [7]) was 151 µM (≈ 51.4 µg/mL).

Turning to `COc1cc(C)c(NC(=O)/C=C/c2ccc3c(C#N)n[nH]c3c2)c(C)n1` [Example 94, (2E)-3-(3-cyano-1H-indazol-6-yl)-N-(6-methoxy-2,4-dimethylpyridin-3-yl)prop-2-enamide], the “mPTP Rat liver pIC50” value in data set [1] stood at 7.5. Besides, in data set [6], the “mPTP Rat brain pIC50” value worked out at 7.4. The solubility at 2 h in data set [3] (setting [7]) is 43 µM (≈ 14.9 µg/mL).

With `COc1cc(C)c(NC(=O)/C=C/c2cc3[nH]nc(F)c3cc2F)c(C)n1` [Example 97, (2E)-3-(3,5-difluoro-1H-indazol-6-yl)-N-(6-methoxy-2,4-dimethylpyridin-3-yl)prop-2-enamide], the “mPTP Rat liver pIC50” value in data set [1] is reported as 7.5. Also, the “mPTP Rat brain pIC50” value in data set [6] was 7.5. The solubility at 2 h in data set [3] (setting [7]) is 35 µM (≈ 12.5 µg/mL).

With `Cc1ncc(F)c(C)c1NC(=O)/C=C/c1cc2[nH]nc(C)c2cc1F` [Example 107, (2E)-N-(5-fluoro-2,4-dimethylpyridin-3-yl)-3-(5-fluoro-3-methyl-1H-indazol-6-yl)prop-2-enamide], the “mPTP Rat liver pIC50” value in data set [1] came to 8.1. Also, the “mPTP Rat brain pIC50” value in data set [6] was determined as 8.0.

`Cc1ncc(F)c(C)c1NC(=O)/C=C/c1ccc2c(F)n[nH]c2c1` [Example 108, (2E)-3-(3-fluoro-1H-indazol-6-yl)-N-(5-fluoro-2,4-dimethylpyridin-3-yl)prop-2-enamide]: in data set [1], the “mPTP Rat liver pIC50” value was determined as 7.8. In addition, in data set [6], the “mPTP Rat brain pIC50” value stood at 7.6.

For `Cc1ncc(F)c(C)c1NC(=O)/C=C/c1cc2[nH]nc(F)c2cc1F` [Example 111, (2E)-3-(3,5-difluoro-1H-indazol-6-yl)-N-(5-fluoro-2,4-dimethylpyridin-3-yl)prop-2-enamide], the “mPTP Rat liver pIC50” value in data set [1] was found to be 8.1. The “mPTP Rat brain pIC50” value in data set [6] came to 8.1.

Consider `Cc1ncc(F)c(C)c1NC(=O)/C=C/c1ccc2c(Cl)n[nH]c2c1` [Example 112, (2E)-3-(3-chloro-1H-indazol-6-yl)-N-(5-fluoro-2,4-dimethylpyridin-3-yl)prop-2-enamide], for which the “mPTP Rat liver pIC50” value in data set [1] is reported as 8.2. Also, in data set [6], the “mPTP Rat brain pIC50” value was found to be 8.2.

As to `Cc1ncccc1NC(=O)/C=C/c1ccc2c(C)n[nH]c2c1` [Example 115, (2E)-3-(3-methyl-1H-indazol-6-yl)-N-(2-methylpyridin-3-yl)prop-2-enamide], the “mPTP Rat liver pIC50” value in data set [1] was 6.2. The “mPTP Rat brain pIC50” value in data set [6] came to 5.7.

As to `Cc1ccnc(C)c1NC(=O)/C=C/c1ccc2c(C)n[nH]c2c1` [Example 116, (2E)-N-(2,4-dimethylpyridin-3-yl)-3-(3-methyl-1H-indazol-6-yl)prop-2-enamide], the “mPTP Rat liver pIC50” value in data set [1] worked out at 6.5. For the same compound, the “mPTP Rat brain pIC50” value in data set [6] is 6.2.

The values are drawn from US20250179028A1, “ACRYLAMIDE COMPOUNDS” (NRG THERAPEUTICS LTD, priority 2022, published 2025).
